Data taken from patent publication US8772005B2, “Laccases, compositions and methods of use” (Danisco US Inc., priority 2006, dated 2014).

System: Thielavia sp. laccase
Assay: Bleaching of solubilized indigo by laccase/mediator combinations, 96-well microtitre plate, absorbance at 600 nm
Format: biochemical
Method: An assay for the bleaching of the solubilized indigo substrate by laccase/mediator combinations was performed in a 96-well microtitre plate as follows
A saturated solution of indigo in N-methylpyrrolidone (NMP) was prepared by stirring indigo (30 mg) in NMP (10 ml) at room temperature for 5 hours. The NMP solution was diluted 10-fold into an aqueous buffer solution resulting in a blue solution. For example, dilution into 50 mM sodium acetate buffer at pH 5, or 50 mM sodium phosphate buffer at pH 7. Solutions were shaken well immediately before use.
The assay for the bleaching of the solubilized indigo substrate was performed in a 96-well microtitre plate whereby each well received the soluble indigo solution in 50 mM sodium acetate buffer at pH 5 (180 uL), laccase (10 ppm enzyme) and mediator solution (from a 20 mM stock solution in methanol). The total volume of each well was adjusted to 200 uL with deionzed water. A control containing laccase only was run in duplicate. The plate was sealed and incubated at 50° C. for 2 hours at 800 rpm on a heated agitator (Thermomixer, Eppendorf). Following this period, the plates were unsealed and a solution of ascorbic acid (20 uL of a 10% aqueous solution) added to each well in order to reduce the oxidized forms of the mediators. The extent of indigo bleaching was then assessed by determining the absorbance for each well at 600 nm using a microtitre plate reader. The lower the absorbance reading, the greater the extent of indigo bleaching.
Laccases derived from Myceliophtora (Denilite® II, Novozymes, Bagsvaerd, Denmark), Thielavia (Ecostone LCC10, AB enzymes, Darmstadt, Germany) and Cerrena sp. were assessed for their ability to bleach solubilized indigo in conjunction with low molecular weight mediators at two pH values.

CCn1c(=NN=c2sc3cc(S(=O)(=O)O)ccc3n2CC)sc2cc(S(=O)(=O)O)ccc21 [ABTS]
effectiveness of mediator for indigo bleaching (in words) (mediator concentration 50 uM): most effective mediator
effectiveness of mediator for indigo bleaching (in words) (mediator concentration 500 uM): most effective mediator

COc1cc(C(=O)O)cc(OC)c1O [Syringic acid, syringic acid]
effectiveness of mediator for indigo bleaching (in words) (mediator concentration 50 uM): bleached soluble indigo no more effectively than the control condition
